Laboratory results from the kinase profiling compilation of Christmann-Franck et al. (2016).

How the values were obtained:
Assay in all cases: radiometric filter-binding kinase assay, Kinaseprofiler
CHEK1 (human) = CHEK1 (human) (UniProt O14757); conditions: compound 1.0 µM; ATP 90 µM
MAP3K7 (human) = MAP3K7 (human) (UniProt O43318); conditions: compound 1.0 µM; ATP 45 µM
PRKX (human) = PRKX (human) (UniProt P51817); conditions: compound 1.0 µM; ATP 200 µM
MAPK14 (human) = MAPK14 (human) (UniProt Q16539); conditions: compound 1.0 µM; ATP 90 µM
PIM1 (human) = PIM1 (human) (UniProt P11309); conditions: compound 1.0 µM; ATP 90 µM
PAK4 (human) = PAK4 (human) (UniProt O96013); conditions: compound 1.0 µM; ATP 10 µM
STK17A (human) = STK17A (human) (UniProt Q9UEE5); conditions: compound 1.0 µM; ATP 10 µM
FGFR4 (human) = FGFR4 (human) (UniProt P22455); conditions: compound 1.0 µM; ATP 155 µM
KDR (human) = KDR (human) (UniProt P35968); conditions: compound 1.0 µM; ATP 90 µM
Chain of KDR (human) (P35968 whole entry, looked up): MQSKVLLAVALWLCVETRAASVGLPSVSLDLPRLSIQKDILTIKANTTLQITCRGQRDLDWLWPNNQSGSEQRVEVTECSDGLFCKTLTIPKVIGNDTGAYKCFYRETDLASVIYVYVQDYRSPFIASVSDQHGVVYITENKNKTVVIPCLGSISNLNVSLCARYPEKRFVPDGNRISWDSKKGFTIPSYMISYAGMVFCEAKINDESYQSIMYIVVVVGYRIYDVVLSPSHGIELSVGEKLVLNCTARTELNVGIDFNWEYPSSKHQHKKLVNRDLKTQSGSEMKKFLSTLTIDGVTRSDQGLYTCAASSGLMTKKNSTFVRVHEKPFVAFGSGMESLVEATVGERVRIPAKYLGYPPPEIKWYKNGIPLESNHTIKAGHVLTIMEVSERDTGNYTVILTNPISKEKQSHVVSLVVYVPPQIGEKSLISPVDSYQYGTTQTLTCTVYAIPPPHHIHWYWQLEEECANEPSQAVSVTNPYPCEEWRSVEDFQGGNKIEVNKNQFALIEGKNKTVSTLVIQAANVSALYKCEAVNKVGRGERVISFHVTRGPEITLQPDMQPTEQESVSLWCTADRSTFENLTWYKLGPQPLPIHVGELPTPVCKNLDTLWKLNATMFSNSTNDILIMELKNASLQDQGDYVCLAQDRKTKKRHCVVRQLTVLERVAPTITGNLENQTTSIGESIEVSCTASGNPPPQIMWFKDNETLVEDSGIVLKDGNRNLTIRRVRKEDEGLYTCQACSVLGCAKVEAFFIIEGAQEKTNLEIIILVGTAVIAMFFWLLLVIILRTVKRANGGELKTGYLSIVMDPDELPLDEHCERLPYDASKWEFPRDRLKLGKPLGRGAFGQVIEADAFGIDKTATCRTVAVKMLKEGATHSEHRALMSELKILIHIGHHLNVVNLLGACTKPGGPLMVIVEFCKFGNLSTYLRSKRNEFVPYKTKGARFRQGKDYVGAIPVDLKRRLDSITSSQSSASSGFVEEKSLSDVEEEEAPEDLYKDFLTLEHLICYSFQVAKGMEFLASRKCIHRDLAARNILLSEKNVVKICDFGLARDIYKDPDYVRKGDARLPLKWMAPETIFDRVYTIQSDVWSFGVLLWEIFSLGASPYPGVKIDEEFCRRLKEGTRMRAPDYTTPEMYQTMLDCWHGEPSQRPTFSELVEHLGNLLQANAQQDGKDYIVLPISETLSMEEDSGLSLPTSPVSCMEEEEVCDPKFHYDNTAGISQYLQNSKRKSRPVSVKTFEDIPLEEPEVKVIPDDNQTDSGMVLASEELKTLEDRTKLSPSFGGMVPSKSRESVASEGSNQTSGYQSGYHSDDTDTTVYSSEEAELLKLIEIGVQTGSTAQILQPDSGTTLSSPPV

[1] = test system: AKT3 (human), Q9Y243 [S472D]; conditions: compound 1.0 µM; ATP 45 µM
CDC42BPA (human) = CDC42BPA (human) (UniProt Q5VT25); conditions: compound 1.0 µM; ATP 45 µM
FYN (human) = FYN (human) (UniProt P06241); conditions: compound 1.0 µM; ATP 70 µM
[2] = test system: MAPK14 (human), Q16539 [T106M]; conditions: compound 1.0 µM; ATP 90 µM
LIMK1 (human) = LIMK1 (human) (UniProt P53667); conditions: compound 1.0 µM; ATP 15 µM
[3] = test system: EGFR (human), P00533 [L858R]; conditions: compound 1.0 µM; ATP 10 µM
[4] = test system: KIT (human), P10721 [D816V]; conditions: compound 1.0 µM; ATP 200 µM
PKN2 (human) = PKN2 (human) (UniProt Q16513); conditions: compound 1.0 µM; ATP 15 µM
Chain of PKN2 (human) (Q16513 whole entry, looked up): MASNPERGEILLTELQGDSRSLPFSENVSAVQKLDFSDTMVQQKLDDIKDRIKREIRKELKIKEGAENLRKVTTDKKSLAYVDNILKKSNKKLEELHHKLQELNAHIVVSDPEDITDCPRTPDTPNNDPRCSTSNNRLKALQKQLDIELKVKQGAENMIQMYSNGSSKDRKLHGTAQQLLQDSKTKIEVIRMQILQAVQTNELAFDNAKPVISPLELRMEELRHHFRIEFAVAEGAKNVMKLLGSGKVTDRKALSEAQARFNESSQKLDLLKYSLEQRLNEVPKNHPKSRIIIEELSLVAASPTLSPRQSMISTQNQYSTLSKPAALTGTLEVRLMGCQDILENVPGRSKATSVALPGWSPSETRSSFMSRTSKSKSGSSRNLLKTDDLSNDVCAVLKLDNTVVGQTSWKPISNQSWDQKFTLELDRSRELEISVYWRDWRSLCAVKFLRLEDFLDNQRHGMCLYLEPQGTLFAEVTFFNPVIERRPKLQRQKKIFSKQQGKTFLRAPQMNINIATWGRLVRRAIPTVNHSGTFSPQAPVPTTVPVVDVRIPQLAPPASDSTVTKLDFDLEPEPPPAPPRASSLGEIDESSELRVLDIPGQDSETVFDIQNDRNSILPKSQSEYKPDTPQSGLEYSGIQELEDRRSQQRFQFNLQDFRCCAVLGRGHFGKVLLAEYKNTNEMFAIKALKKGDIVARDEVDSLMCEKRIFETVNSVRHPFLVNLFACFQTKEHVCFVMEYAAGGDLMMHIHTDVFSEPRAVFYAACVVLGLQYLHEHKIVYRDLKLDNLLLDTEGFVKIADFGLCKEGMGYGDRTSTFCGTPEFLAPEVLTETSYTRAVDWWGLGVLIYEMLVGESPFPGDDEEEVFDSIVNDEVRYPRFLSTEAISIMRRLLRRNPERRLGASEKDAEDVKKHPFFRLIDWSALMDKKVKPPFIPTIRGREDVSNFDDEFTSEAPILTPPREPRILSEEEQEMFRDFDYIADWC

[5] = test system: MAPK9 (human), P45984 [S51N]; conditions: compound 1.0 µM; ATP 45 µM
[6] = target: CSNK2A1 CSNK2B CSNK2A2 (human) (UniProt P19784+P68400+P67870); conditions: compound 1.0 µM; ATP 15 µM
[7] = test system: ABL1 (human), P00519 [T315I]; conditions: compound 1.0 µM; ATP 10 µM
HIPK1 (human) = HIPK1 (human) (UniProt Q86Z02); conditions: compound 1.0 µM; ATP 45 µM
EGFR (human) = EGFR (human) (UniProt P00533); conditions: compound 1.0 µM; ATP 10 µM
EPHB1 (human) = EPHB1 (human) (UniProt P54762); conditions: compound 1.0 µM; ATP 200 µM
HIPK3 (human) = HIPK3 (human) (UniProt Q9H422); conditions: compound 1.0 µM; ATP 15 µM
Chain of HIPK3 (human) (Q9H422 whole entry, looked up): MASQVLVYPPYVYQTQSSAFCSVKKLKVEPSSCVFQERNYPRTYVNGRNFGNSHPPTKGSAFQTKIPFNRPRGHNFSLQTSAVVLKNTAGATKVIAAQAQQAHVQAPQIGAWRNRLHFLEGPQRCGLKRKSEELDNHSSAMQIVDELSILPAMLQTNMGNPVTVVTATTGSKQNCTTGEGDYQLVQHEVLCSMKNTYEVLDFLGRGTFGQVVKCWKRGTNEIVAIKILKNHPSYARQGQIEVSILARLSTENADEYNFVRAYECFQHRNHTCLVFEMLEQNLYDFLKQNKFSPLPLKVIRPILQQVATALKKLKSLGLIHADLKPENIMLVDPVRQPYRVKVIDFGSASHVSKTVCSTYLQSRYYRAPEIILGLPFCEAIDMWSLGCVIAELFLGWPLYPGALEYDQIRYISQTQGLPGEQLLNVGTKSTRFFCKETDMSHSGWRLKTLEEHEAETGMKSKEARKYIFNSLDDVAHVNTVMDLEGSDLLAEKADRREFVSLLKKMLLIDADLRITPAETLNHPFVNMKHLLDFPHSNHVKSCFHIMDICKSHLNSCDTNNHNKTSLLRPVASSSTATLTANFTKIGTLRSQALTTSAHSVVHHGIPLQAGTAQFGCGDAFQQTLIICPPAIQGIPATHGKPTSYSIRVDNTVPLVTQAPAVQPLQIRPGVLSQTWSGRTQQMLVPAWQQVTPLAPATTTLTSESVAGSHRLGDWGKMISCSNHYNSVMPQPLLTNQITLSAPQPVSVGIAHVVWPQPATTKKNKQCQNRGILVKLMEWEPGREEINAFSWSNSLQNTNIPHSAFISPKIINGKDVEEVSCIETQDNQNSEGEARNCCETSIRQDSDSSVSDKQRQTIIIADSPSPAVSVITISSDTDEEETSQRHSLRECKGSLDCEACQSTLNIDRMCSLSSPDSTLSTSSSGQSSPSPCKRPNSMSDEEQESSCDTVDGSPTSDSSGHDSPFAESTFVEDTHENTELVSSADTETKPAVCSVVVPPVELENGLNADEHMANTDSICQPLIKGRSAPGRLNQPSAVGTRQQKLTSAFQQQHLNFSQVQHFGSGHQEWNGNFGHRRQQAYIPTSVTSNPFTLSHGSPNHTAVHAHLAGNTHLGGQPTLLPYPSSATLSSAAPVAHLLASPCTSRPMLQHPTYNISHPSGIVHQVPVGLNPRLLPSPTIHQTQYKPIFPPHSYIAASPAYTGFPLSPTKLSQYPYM

MAP2K7 (human) = MAP2K7 (human) (UniProt O14733); conditions: compound 1.0 µM; ATP 10 µM
RPS6KA3 KD1 KD2 (human) = RPS6KA3 KD1 KD2 (human) (UniProt P51812); conditions: compound 1.0 µM; ATP 10 µM
PRKCQ (human) = PRKCQ (human) (UniProt Q04759); conditions: compound 1.0 µM; ATP 15 µM
MAPK13 (human) = MAPK13 (human) (UniProt O15264); conditions: compound 1.0 µM; ATP 15 µM
PRKD2 (human) = PRKD2 (human) (UniProt Q9BZL6); conditions: compound 1.0 µM; ATP 155 µM
EPHA3 (human) = EPHA3 (human) (UniProt P29320); conditions: compound 1.0 µM; ATP 120 µM
STK4 (human) = STK4 (human) (UniProt Q13043); conditions: compound 1.0 µM; ATP 90 µM
IKBKB (human) = IKBKB (human) (UniProt O14920); conditions: compound 1.0 µM; ATP 10 µM
LCK (human) = LCK (human) (UniProt P06239); conditions: compound 1.0 µM; ATP 90 µM
[8] = test system: MAPKAPK2 (human), P49137 [A399G]; conditions: compound 1.0 µM; ATP 90 µM
MAPK8 (human) = MAPK8 (human) (UniProt P45983); conditions: compound 1.0 µM; ATP 45 µM
Chain of MAPK8 (human) (P45983 whole entry, looked up): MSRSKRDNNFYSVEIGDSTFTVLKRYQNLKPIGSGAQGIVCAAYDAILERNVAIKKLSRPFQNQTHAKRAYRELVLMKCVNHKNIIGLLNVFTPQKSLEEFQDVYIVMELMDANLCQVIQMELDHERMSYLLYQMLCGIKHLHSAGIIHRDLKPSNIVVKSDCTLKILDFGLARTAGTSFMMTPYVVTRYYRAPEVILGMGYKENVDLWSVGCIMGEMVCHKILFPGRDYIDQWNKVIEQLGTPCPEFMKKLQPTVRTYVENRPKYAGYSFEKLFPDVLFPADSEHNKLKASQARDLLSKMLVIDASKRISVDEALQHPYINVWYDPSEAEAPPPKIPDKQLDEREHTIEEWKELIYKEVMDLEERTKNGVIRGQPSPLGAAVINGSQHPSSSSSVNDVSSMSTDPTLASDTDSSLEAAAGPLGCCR

[9] = test system: AKT2 (human), P31751 [S474D]; conditions: compound 1.0 µM; ATP 200 µM
[10] = test system: ROS1 (human), P08922 [V2262A]; conditions: compound 1.0 µM; ATP 200 µM
MAPK3 (human) = MAPK3 (human) (UniProt P27361); conditions: compound 1.0 µM; ATP 70 µM

Chain of PRKX (human) (P51817 whole entry, looked up): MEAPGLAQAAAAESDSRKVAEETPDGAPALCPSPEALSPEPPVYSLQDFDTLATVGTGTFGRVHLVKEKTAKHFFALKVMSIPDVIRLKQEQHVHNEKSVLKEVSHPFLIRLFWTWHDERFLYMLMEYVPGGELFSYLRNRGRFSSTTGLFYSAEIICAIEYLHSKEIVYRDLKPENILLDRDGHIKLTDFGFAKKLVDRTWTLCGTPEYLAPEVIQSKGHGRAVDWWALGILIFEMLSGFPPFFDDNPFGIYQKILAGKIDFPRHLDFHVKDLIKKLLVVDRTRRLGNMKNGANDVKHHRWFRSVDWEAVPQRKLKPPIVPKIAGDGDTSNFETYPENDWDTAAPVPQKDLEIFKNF
Chain of CHEK1 (human) (O14757 whole entry, looked up): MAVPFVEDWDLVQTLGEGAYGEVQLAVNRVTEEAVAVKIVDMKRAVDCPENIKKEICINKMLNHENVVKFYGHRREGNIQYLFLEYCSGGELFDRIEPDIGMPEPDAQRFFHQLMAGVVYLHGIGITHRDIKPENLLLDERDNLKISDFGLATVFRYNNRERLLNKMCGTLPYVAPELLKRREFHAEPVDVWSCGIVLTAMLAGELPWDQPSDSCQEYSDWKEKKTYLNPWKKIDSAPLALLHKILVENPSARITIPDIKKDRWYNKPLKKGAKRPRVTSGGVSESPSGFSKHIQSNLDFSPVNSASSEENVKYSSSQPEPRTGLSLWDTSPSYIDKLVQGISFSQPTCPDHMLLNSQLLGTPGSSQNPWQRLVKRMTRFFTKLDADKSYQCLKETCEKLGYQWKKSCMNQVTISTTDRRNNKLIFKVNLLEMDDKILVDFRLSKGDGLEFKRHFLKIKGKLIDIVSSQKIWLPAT

CN(C)S(=O)(=O)Nc1ccc2ccc3ncc(-c4cnn(C)c4)cc3c(=O)c2c1
residual activity (CHEK1 (human)): 98%
residual activity (MAP3K7 (human)): 75%
residual activity (PRKX (human)): -12%
residual activity (MAPK14 (human)): 124%
residual activity (PIM1 (human)): 101%
residual activity (PAK4 (human)): 94%
residual activity (STK17A (human)): 0%
residual activity (FGFR4 (human)): 88%
residual activity (KDR (human)): 10%
residual activity [1]: 96%
residual activity (CDC42BPA (human)): 107%
residual activity (FYN (human)): 64%
residual activity [2]: 112%
residual activity (LIMK1 (human)): 72%
residual activity [3]: 41%
residual activity [4]: 95%
residual activity (PKN2 (human)): 92%
residual activity [5]: 88%
residual activity [6]: 117%
residual activity [7]: 35%
residual activity (HIPK1 (human)): 116%
residual activity (EGFR (human)): 100%
residual activity (EPHB1 (human)): 67%
residual activity (HIPK3 (human)): 102%
residual activity (MAP2K7 (human)): 69%
residual activity (RPS6KA3 KD1 KD2 (human)): 76%
residual activity (PRKCQ (human)): 100%
residual activity (MAPK13 (human)): 98%
residual activity (PRKD2 (human)): 109%
residual activity (EPHA3 (human)): 96%
residual activity (STK4 (human)): 80%
residual activity (IKBKB (human)): 98%
residual activity (LCK (human)): 50%
residual activity [8]: 104%
residual activity (MAPK8 (human)): 98%
residual activity [9]: 89%
residual activity [10]: 71%
residual activity (MAPK3 (human)): 120%
